Source: the supplement of paper PMC10307832

Assays:
Assay in all cases: relative viability (nuclei count vs DMSO), 5 days (fraction); higher = more cells survive
HCC-15 = system: HCC-15
Summary of the method: (§1)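 Medians of duplicate plates are given as relative viability. That measure is the nuclei count in treated wells divided by the count in vehicle wells. Counts were taken on 4× images of lung cancer cell lines in 1536-well plates, 5 days after pin-tool dosing the day after seeding with one drug alone or a fixed anchor-drug dose plus five library-drug doses (not always all listed) in √10 steps.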

COR-L 105 = system: COR-L 105
Summary of the method: as §1

HCC-78 = system: HCC-78
Summary of the method: as §1

NCI-H1755 = system: NCI-H1755
Summary of the method: as §1

ABC-1 = system: ABC-1
Summary of the method: as §1

NCI-H2023 = system: NCI-H2023
Summary of the method: as §1

NCI-H1975 = system: NCI-H1975
Summary of the method: as §1

NCI-H358 = system: NCI-H358
Summary of the method: as §1

EMC-BAC-2 = system: EMC-BAC-2
Summary of the method: as §1

UMC-11 = system: UMC-11
Summary of the method: as §1

EPLC-272H = system: EPLC-272H
Summary of the method: as §1

NCI-H2126 = system: NCI-H2126
Summary of the method: as §1

HOP-62 = system: HOP-62
Summary of the method: as §1

NCI-H322M = system: NCI-H322M
Summary of the method: as §1

NCI-H2085 = system: NCI-H2085
Summary of the method: as §1

NCI-H3122 = system: NCI-H3122
Summary of the method: as §1

CAL-12T = system: CAL-12T
Summary of the method: as §1

LXF-289 = system: LXF-289
Summary of the method: as §1

NCI-H1666 = system: NCI-H1666
Summary of the method: as §1

NCI-H1915 = system: NCI-H1915
Summary of the method: as §1

Compound: Cc1sc2c(c1C)C(c1ccc(Cl)cc1)=N[C@@H](CC(=O)OC(C)(C)C)c1nnc(C)n1-2 [JQ1] + CS(=O)(=O)CCNCc1ccc(-c2ccc3ncnc(Nc4ccc(OCc5cccc(F)c5)c(Cl)c4)c3c2)o1 [Lapatinib] (partner 2 µM)
- relative viability (HCC-15; first compound 0.04 µM): 0.778
- relative viability (HCC-15; first compound 0.4 µM): 0.85
- relative viability (HCC-15; first compound 1.265 µM): 0.655
- relative viability (HCC-15; first compound 4 µM): 0.592
- relative viability (COR-L 105; first compound 0.04 µM): 0.291
- relative viability (COR-L 105; first compound 0.1265 µM): 0.279
- relative viability (COR-L 105; first compound 0.4 µM): 0.323
- relative viability (COR-L 105; first compound 1.265 µM): 0.346
- relative viability (COR-L 105; first compound 4 µM): 0.361
- relative viability (HCC-78; first compound 0.04 µM): 0.861
- relative viability (HCC-78; first compound 0.1265 µM): 0.53
- relative viability (HCC-78; first compound 0.4 µM): 0.493
- relative viability (HCC-78; first compound 1.265 µM): 0.391
- relative viability (HCC-78; first compound 4 µM): 0.28
- relative viability (NCI-H1755; first compound 0.04 µM): 1.06
- relative viability (NCI-H1755; first compound 0.1265 µM): 0.735
- relative viability (NCI-H1755; first compound 0.4 µM): 1.05
- relative viability (NCI-H1755; first compound 1.265 µM): 0.853
- relative viability (NCI-H1755; first compound 4 µM): 0.607
- relative viability (ABC-1; first compound 0.04 µM): 1.11
- relative viability (ABC-1; first compound 0.1265 µM): 0.82
- relative viability (ABC-1; first compound 0.4 µM): 1.04
- relative viability (ABC-1; first compound 1.265 µM): 0.992
- relative viability (ABC-1; first compound 4 µM): 0.727
- relative viability (NCI-H2023; first compound 0.04 µM): 0.738
- relative viability (NCI-H2023; first compound 0.1265 µM): 0.463
- relative viability (NCI-H2023; first compound 0.4 µM): 0.443
- relative viability (NCI-H2023; first compound 1.265 µM): 0.334
- relative viability (NCI-H2023; first compound 4 µM): 0.258
- relative viability (NCI-H1975; first compound 0.04 µM): 0.85
- relative viability (NCI-H1975; first compound 0.1265 µM): 0.551
- relative viability (NCI-H1975; first compound 0.4 µM): 0.565
- relative viability (NCI-H1975; first compound 1.265 µM): 0.351
- relative viability (NCI-H1975; first compound 4 µM): 0.333
- relative viability (NCI-H358; first compound 0.04 µM): 0.467
- relative viability (NCI-H358; first compound 0.1265 µM): 0.494
- relative viability (NCI-H358; first compound 0.4 µM): 0.647
- relative viability (NCI-H358; first compound 1.265 µM): 0.561
- relative viability (NCI-H358; first compound 4 µM): 0.577
- relative viability (EMC-BAC-2; first compound 0.04 µM): 0.841
- relative viability (EMC-BAC-2; first compound 0.1265 µM): 0.905
- relative viability (EMC-BAC-2; first compound 0.4 µM): 0.949
- relative viability (EMC-BAC-2; first compound 1.265 µM): 0.551
- relative viability (EMC-BAC-2; first compound 4 µM): 0.495
- relative viability (UMC-11; first compound 0.04 µM): 0.876
- relative viability (UMC-11; first compound 0.1265 µM): 0.757
- relative viability (UMC-11; first compound 0.4 µM): 0.419
- relative viability (UMC-11; first compound 1.265 µM): 0.255
- relative viability (UMC-11; first compound 4 µM): 0.271
- relative viability (EPLC-272H; first compound 0.04 µM): 0.937
- relative viability (EPLC-272H; first compound 0.1265 µM): 0.98
- relative viability (EPLC-272H; first compound 0.4 µM): 0.994
- relative viability (EPLC-272H; first compound 1.265 µM): 0.519
- relative viability (EPLC-272H; first compound 4 µM): 0.5
- relative viability (NCI-H2126; first compound 0.04 µM): 0.759
- relative viability (NCI-H2126; first compound 0.1265 µM): 0.746
- relative viability (NCI-H2126; first compound 0.4 µM): 0.755
- relative viability (NCI-H2126; first compound 1.265 µM): 0.604
- relative viability (NCI-H2126; first compound 4 µM): 0.68
- relative viability (HOP-62; first compound 0.04 µM): 1.07
- relative viability (HOP-62; first compound 0.1265 µM): 0.724
- relative viability (HOP-62; first compound 0.4 µM): 0.636
- relative viability (HOP-62; first compound 1.265 µM): 0.241
- relative viability (HOP-62; first compound 4 µM): 0.126
- relative viability (NCI-H322M; first compound 0.04 µM): 0.634
- relative viability (NCI-H322M; first compound 0.1265 µM): 0.658
- relative viability (NCI-H322M; first compound 0.4 µM): 0.572
- relative viability (NCI-H322M; first compound 1.265 µM): 0.506
- relative viability (NCI-H322M; first compound 4 µM): 0.467
- relative viability (NCI-H2085; first compound 0.04 µM): 0.748
- relative viability (NCI-H2085; first compound 0.1265 µM): 0.723
- relative viability (NCI-H2085; first compound 0.4 µM): 0.621
- relative viability (NCI-H2085; first compound 1.265 µM): 0.409
- relative viability (NCI-H2085; first compound 4 µM): 0.396
- relative viability (NCI-H3122; first compound 0.04 µM): 0.996
- relative viability (NCI-H3122; first compound 0.1265 µM): 0.974
- relative viability (NCI-H3122; first compound 0.4 µM): 0.981
- relative viability (NCI-H3122; first compound 1.265 µM): 1.02
- relative viability (NCI-H3122; first compound 4 µM): 0.876
- relative viability (CAL-12T; first compound 0.04 µM): 0.748
- relative viability (CAL-12T; first compound 0.4 µM): 0.541
- relative viability (CAL-12T; first compound 1.265 µM): 0.383
- relative viability (CAL-12T; first compound 4 µM): 0.463
- relative viability (LXF-289; first compound 0.04 µM): 0.915
- relative viability (LXF-289; first compound 0.1265 µM): 0.862
- relative viability (LXF-289; first compound 0.4 µM): 0.917
- relative viability (LXF-289; first compound 1.265 µM): 0.851
- relative viability (LXF-289; first compound 4 µM): 0.704
- relative viability (NCI-H1666; first compound 0.04 µM): 0.697
- relative viability (NCI-H1666; first compound 0.1265 µM): 0.476
- relative viability (NCI-H1666; first compound 0.4 µM): 0.379
- relative viability (NCI-H1666; first compound 1.265 µM): 0.278
- relative viability (NCI-H1666; first compound 4 µM): 0.288
- relative viability (NCI-H1915; first compound 0.04 µM): 0.976
- relative viability (NCI-H1915; first compound 0.1265 µM): 0.574
- relative viability (NCI-H1915; first compound 0.4 µM): 0.917
- relative viability (NCI-H1915; first compound 1.265 µM): 0.582
- relative viability (NCI-H1915; first compound 4 µM): 0.315
